One block for each molecule: values may come before it.
Experiments:
[1] = target: Death-associated protein kinase 1 (Homo sapiens) (UniProt P53355); assay: Inhibition of DAPK1 (unknown origin) at 0.45 uM relative to control
[2] = target: Serine/threonine-protein kinase PAK 2 (Homo sapiens) (UniProt Q13177); assay: Inhibition of PAK2 (unknown origin) at 0.164 uM relative to control
[3] = target: Ephrin type-A receptor 2 (Homo sapiens) (UniProt P29317); assay: Inhibition of EPHA2 (unknown origin) at 0.164 uM relative to control
[4] = target: Cyclin-dependent kinase 1/cyclin B1 (Homo sapiens) (UniProt P06493+P14635); assay: Inhibition of CDK1/Cyclin B1 (unknown origin) at 0.164 uM relative to control; type: protein-complex assay
[5] = target: Mitogen-activated protein kinase kinase kinase kinase 4 (Homo sapiens) (UniProt O95819); assay: Inhibition of HGK (unknown origin) at 0.164 uM relative to control
[6] = target: T1, Testis-specific serine/threonine-protein kinase 2 (Homo sapiens) (UniProt Q96PF2); assay: Inhibition of TSSK2 (unknown origin) at 0.164 uM relative to control
T1 sequence (whole entry): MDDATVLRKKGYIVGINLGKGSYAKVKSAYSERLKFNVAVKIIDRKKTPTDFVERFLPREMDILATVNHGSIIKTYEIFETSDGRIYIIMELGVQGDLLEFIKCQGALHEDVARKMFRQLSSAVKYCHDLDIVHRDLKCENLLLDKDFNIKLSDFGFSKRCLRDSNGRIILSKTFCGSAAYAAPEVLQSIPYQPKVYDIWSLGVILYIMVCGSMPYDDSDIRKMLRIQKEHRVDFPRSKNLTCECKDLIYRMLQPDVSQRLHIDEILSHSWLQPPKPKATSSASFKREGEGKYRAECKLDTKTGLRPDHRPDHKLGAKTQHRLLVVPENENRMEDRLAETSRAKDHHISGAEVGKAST

[7] = target: Vascular endothelial growth factor receptor 2 (Homo sapiens) (UniProt P35968); assay: Inhibition of KDR (unknown origin) at 0.164 uM relative to control
[8] = target: MAP kinase-interacting serine/threonine-protein kinase 1 (Homo sapiens) (UniProt Q9BUB5); assay: Inhibition of MNK1 (unknown origin) at 0.164 uM relative to control
[9] = target: Serine/threonine-protein kinase BRSK1 (Homo sapiens) (UniProt Q8TDC3); assay: Inhibition of BRSK1 (unknown origin) at 0.164 uM relative to control
[10] = target: Serine/threonine-protein kinase Nek9 (Homo sapiens) (UniProt Q8TD19); assay: Inhibition of NEK9 (unknown origin) at 0.164 uM relative to control
[11] = Fraction unbound in mouse plasma; type: ADME, cell-free
[12] = target: Protein kinase C gamma type (Homo sapiens) (UniProt P05129); assay: Inhibition of PKC-gamma (unknown origin) at 0.164 uM relative to control
[13] = target: Tyrosine-protein kinase ITK/TSK (Homo sapiens) (UniProt Q08881); assay: Inhibition of ITK (unknown origin) at 0.19 uM relative to control
[14] = target: Serine/threonine-protein kinase Chk1 (Homo sapiens) (UniProt O14757); assay: Inhibition of CHK1 (unknown origin) at 0.19 uM relative to control
[15] = target: T2, Protein kinase C iota type (Homo sapiens) (UniProt P41743); assay: Inhibition of PKC-iota (unknown origin) at 0.19 uM relative to control
T2 sequence (whole entry): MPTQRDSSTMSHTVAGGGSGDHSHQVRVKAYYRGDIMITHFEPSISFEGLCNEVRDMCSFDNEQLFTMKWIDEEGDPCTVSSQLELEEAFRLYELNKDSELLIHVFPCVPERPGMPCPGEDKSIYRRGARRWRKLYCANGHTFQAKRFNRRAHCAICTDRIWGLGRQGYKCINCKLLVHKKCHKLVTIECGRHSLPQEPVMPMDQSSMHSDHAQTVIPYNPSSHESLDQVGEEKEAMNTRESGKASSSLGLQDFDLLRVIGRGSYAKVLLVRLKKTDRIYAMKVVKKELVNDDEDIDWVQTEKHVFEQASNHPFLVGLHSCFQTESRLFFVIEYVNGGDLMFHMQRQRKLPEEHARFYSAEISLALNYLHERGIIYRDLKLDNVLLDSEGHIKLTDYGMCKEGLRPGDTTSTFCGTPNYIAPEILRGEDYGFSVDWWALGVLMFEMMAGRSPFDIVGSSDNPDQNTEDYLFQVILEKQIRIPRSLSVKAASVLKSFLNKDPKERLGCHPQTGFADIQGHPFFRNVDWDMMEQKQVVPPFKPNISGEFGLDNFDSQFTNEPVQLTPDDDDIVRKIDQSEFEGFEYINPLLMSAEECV

[16] = target: Dual specificity tyrosine-phosphorylation-regulated kinase 1B (Homo sapiens) (UniProt Q9Y463); assay: Inhibition of DYRK1B (unknown origin) at 0.19 uM relative to control
[17] = target: Serine/threonine-protein kinase pim-3 (Homo sapiens) (UniProt Q86V86); assay: Inhibition of PIM3 (unknown origin) at 0.19 uM relative to control
[18] = tested on: Epidermal growth factor receptor (Homo sapiens), P00533 [L858R,T790M]; assay: Inhibition of EGFR T790M/L858R double mutant (unknown origin) at 0.19 uM relative to control
[19] = target: Tyrosine-protein kinase HCK (Homo sapiens) (UniProt P08631); assay: Inhibition of Hck (unknown origin) at 0.19 uM relative to control
[20] = target: Dual specificity protein kinase CLK2 (Homo sapiens) (UniProt P49760); assay: Inhibition of CLK2 (unknown origin) at 0.19 uM relative to control
[21] = target: Protein kinase C beta type (Homo sapiens) (UniProt P05771); assay: Inhibition of PKC-beta1 (unknown origin) at 0.19 uM relative to control
[22] = target: CDK4/Cyclin D3 (Homo sapiens) (UniProt P11802+P30281); assay: Inhibition of CDK4/CyclinD3 (unknown origin) at 0.19 uM relative to control; type: protein-complex assay
[23] = target: Aurora kinase B (Homo sapiens) (UniProt Q96GD4); assay: Inhibition of AurB (unknown origin) at 0.19 uM relative to control

Structure (SMILES): Cc1n[nH]c(C)c1-c1ccc2c(NC(=O)c3ccc(N4CCN(C)CC4)cc3)n[nH]c2c1
- inhibition [1]: -1.3%

- inhibition [2]: 12%
- inhibition [3]: -2.3%
- inhibition [4]: -0.3%
- inhibition [5]: 5%
- inhibition [6]: -5.7%
- inhibition [7]: 11.7%
- inhibition [8]: 3.3%
- inhibition [9]: -1%
- fraction unbound [11]: 0.24
- inhibition [12]: -2.7%
Structure (SMILES): COC(=O)Nc1cc(-c2c(C3CC3)n[nH]c2C)cc2[nH]ncc12
- inhibition [10]: 0.3%

- inhibition [13]: 24.7%
- inhibition [14]: -8.7%
- inhibition [15]: -7%
- inhibition [16]: 3%
- inhibition [17]: -3.7%
- inhibition [18]: -1%
- inhibition [19]: 6.7%
- inhibition [20]: -0.3%
- inhibition [21]: 3%
- inhibition [22]: -8%
- inhibition [23]: -2.3%
Structure (SMILES): Cc1[nH]nc(C2CC2)c1-c1ccc2c(-c3ccc(N4CCN(C)CC4)nc3)n[nH]c2c1
